In patent US9642874B2, “Compositions of selenoorganic compounds and methods of use thereof” (Alltech, Inc., priority 2014, dated 2017):

Assays:
[1] = system: primary mouse hepatocytes; experiment: Glucose production in primary mouse hepatocytes (glucose in culture media); format: cell-based; details: for 8-CPT/Dex-stimulated glucose production: serum-free; for 8-CPT/Dex-stimulated glucose production / decrease of glucose production: 6 hours
Method: (§1) The overnight-acclimated hepatocytes were washed twice with PBS (to remove any residual FBS and other additives in the TRL hepatocyte maintenance medium, pretreated with control (water) or selenium Compounds CDE (150 or 300 ppb of each selenium compound) in DMEM/F12 media supplemented with 10% fetal bovine serum (FBS) for 24 hr. These cells were then washed twice with PBS and incubated with the same dose of selenium Compounds CDE (150 or 300 ppb) in the presence or absence of insulin (10 or 100 nM, Sigma), 0.1 mM 8-CPT (Sigma) or 0.5 μM Dex (Sigma) in serum-free and glucose-free DMEM media (Invitrogen) supplemented with 20 mM lactose (Sigma) and 2 mM pyruvate (Sigma) and 15 mM HEPES (Sigma) for another 6 hours. After treatments, cell media were collected and subjected to glucose assay and toxicological studies of lactate dehydrogenase (LDH) and cells were collected for RNA and protein analysis.
For the studies of Compounds CDE on primary mouse hepatocytes under totally serum-free culture conditions, hepatocytes were acclimated in hepatocyte maintenance medium (TRL) for 8 hours, washed twice with PBS (to remove any residual FBS and other additives in the culture dish) and then starved in serum-free DMEM/F12 media overnight. Some of these serum-starved hepatocytes were treated with control (water), selenium compounds (150 or 300 ppb of each compound) in the presence or absence of insulin (10 or 100 nM), 0.1 mM 8-CPT (Sigma) or 0.5 μM Dex (Sigma) in serum-free and glucose/phenol red-free DMEM media supplemented with 20 mM lactose and 2 mM pyruvate and 15 mM HEPES for 6 hours. After 6 hours treatment, culture media were collected for glucose analysis and toxicological studies monitoring LDH activity and cultured cells were isolated for protein analysis. In addition, some serum-starved hepatocytes were treated with Compounds CDE (300 ppb of each compound) in plain DMEM/F12 media for 0, 5, 30, 60, 120 and 180 min and cells were collected for the time-course protein analysis of various signaling molecules.
Cell culture media from the above described treatments were collected and centrifuged at 300×g for 5 minutes to remove any potential dislodged hepatocytes and subjected to glucose analysis using a colormetric glucose assay kit (Abcam) according to the manufacturer protocol. The absorbance at OD570 nm in the samples and various concentrations of glucose standards were determined by the Bio-Tek microplate reader, and glucose concentration in the medium of each sample was obtained from the glucose standard curve, and then normalized by its protein level in attached cells which were determined using the Pierce Micro-BCA protein assay kit (Thermo Scientific-Piece Biotechnology, Rockford, Ill.) according to the manufacturer's protocol. Glucose levels in each treatment group were divided by the mean level in control group (without the treatments of Compounds CDE, insulin, 8-CPT and Dex) to obtain the relative glucose level. Data are presented as Mean±SEM of 3-4 samples.
Similar to the studies on AML-12 cells, primary mouse hepatocytes were pretreated with a control (water) or 150 ppb and 300 ppb doses of selenium Compounds CDE in serum-containing DMEM/F12 media for 24 hours. This treatment was followed by retreatments with these selenium compounds in the presence or absence of insulin (10 and 100 nM) or insulin alone for 6 hours. […]

[2] = system: Foxo4; experiment: Western blot of pFoxo4T28 in primary mouse hepatocytes; format: cell-based; details: 100 nM insulin, 6 hours
Method: as §1, with “After treatments, cell media were collected and subjected to glucose assay and toxicological studies of lactate dehydrogenase (LDH) and cells were collected for RNA and protein analysis.” left out
After the above described treatments, primary mouse hepatocytes were rinsed with ice-cold PBS and lysed in the ice-cold RIPA buffer containing complete proteinase and phosphatase inhibitors (Thermo-Fisher Scientific, Waltham, Mass.) on ice for 30 min Cell lysates were collected using a cell scraper and transfer pipette and then centrifuged at 12000×g for 30 min at 4° C. to remove the DNA pellet and obtain the protein extract. Protein levels in the supernatant of these cell lysates were determined using the Pierce Micro-BCA protein assay kit (Thermo Scientific-Piece Biotechnology, Rockford, Ill.) according to the manufacturer's protocol. […]

insulin: insulin (10 or 100 nM, Sigma) used as comparator and cotreatment
8-CPT/Dex-stimulated glucose production ([1]; 10 nM insulin): significantly inhibited glucose production | 8-CPT/Dex-stimulated glucose production ([1]; 100 nM insulin): only a trend of decreased glucose production | 8-CPT/Dex-induced glucose production ([1]; insulin 10 and 100 nM, vs 8-CPT/Dex group): significantly decreased 8-CPT/Dex-induced glucose production | decrease of glucose production ([1]; insulin alone at 10 nM and 100 nM, vs water-treated control): 25-30% | decrease of glucose production ([1]; insulin alone, both doses (10, 100 nM), serum-starved, serum-free media): 40-47% | pFoxo4T28 levels [2]: barely detectable
